Data taken from PubChem BioAssay AID179 (DTP/NCI, 2004).
Where “and” joins values, the source holds several entries; their conditions need not be identical. Equal entries are not always repeated. Calls of active or inactive are those of the source.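 Rule for the calls: active = compounds giving half or more protection of infected cells from virus-caused growth loss, again on retest; inactive = the rest.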

Tested on: CEM cells HIV-1 protection, formazan growth assay
Experiment: NCI AIDS Antiviral Assay
Details: for IC50: measured here: growth of uninfected CEM cells
Method in brief: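 Steps: treat uninfected and HIV-1-infected human CEM cells at five drug levels; quantify growth by soluble formazan; retest any compound reaching 50% protection; classify actives from the retest.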

SMILES | EC50 [µM] | IC50 | outcome
CCCCCCCCCCCC[N+]12CC[N+](C)(CC1)CC2 | > 251 | 14.8 µM | –
NCCc1ccc(O)c(O)c1 | > 200 | 132 µM | –
CC(C)OP(=O)(OC(C)C)C(=Nc1ccc(N=C(NNc2ccc([N+](=O)[O-])cc2)P(=O)(OC(C)C)OC(C)C)cc1)NNc1ccc([N+](=O)[O-])cc1 | > 3.55 | > 3.55 µM | –
C=CCOc1cccc(C2(O)c3ccccc3C3=NCCCN32)c1 (centres undefined) | > 200 | 37.2 µM | –
COC(=O)/C(=N/O)C(C(=O)OC)C(=O)C(=O)Nc1c(Cl)cc(C)cc1S(=O)(=O)O (centres undefined) | > 550 | > 550 µM | –
CC(O)C1CC1(CO)CNc1cc(Cl)nc(N)n1 (centres undefined) | > 200 | > 200 µM | –
CC1OC(Oc2c(-c3ccc(O)c(O)c3)oc3cc(O)cc(O)c3c2=O)C(O)C(O)C1O (centres undefined) | – | – | inactive
CNC(=S)NNC(=O)c1c(C)nc2sccn12 | > 933 | 575 µM | –
Nn1nc2ccccc2n1 | > 1860 | > 1860 µM | –
O=c1[nH][nH]c(=O)c2c1ccc1oc3ccccc3c12 | > 200 | > 200 µM | –
Cc1cc(NS(=O)(=O)c2ccc(Nc3c4ccccc4nc4c(C(=O)NCC#N)cccc34)cc2)no1 | > 200 | 10.7 µM | –
O=c1nc(-c2ccccc2)cc(CC(O)c2ccc(Cl)c(Cl)c2)[nH]1 (centres undefined) | > 20 | > 20 µM | –
COC(=O)N(CO)CO | > 200 | > 200 µM | –
CC(C)(C)c1ccc(O)c(C(O)c2ccncc2)c1 (centres undefined) | > 200 | 79.4 µM | –
O=C(CC(=O)C1=CNc2ccccc2S1)C(=O)Nc1ccc(Cl)cc1 | > 126 | > 126 µM | –
COC(=O)/C(C#N)=C/Sc1ccccc1 | – | – | inactive
COc1ccc(/C=C2\CN(C)Cc3c2[nH]c(=O)c(C#N)c3-c2ccc(OC)cc2)cc1 | > 200 | 97.7 µM | –
COC(=O)/C=C\COCC1C2CCC(=O)C21 (centres undefined) | > 50.1 | 28.2 µM | –
N#Cc1ccccc1NC(=O)C(=O)C(C(=O)c1ccccc1F)C1OC(=O)c2ccccc21 (centres undefined) | > 112 | 16.2 µM | –
O=C(O)c1cc2ccccc2c(N=Nc2ccc(/C=C/c3ccc(N=Nc4c(O)c(C(=O)O)cc5ccccc45)cc3S(=O)(=O)O)c(S(=O)(=O)O)c2)c1O | 8.51 | 50.1 µM | –
Cc1cc[n+](CC(=O)CC([O-])(C(F)(F)F)C(F)(F)F)cc1 | > 200 | > 200 µM | –

SMILES | EC50 [µM] | IC50 | outcome
CC(=O)OCC1OC(n2c(C)c(C)cc(C#N)c2=S)C(OC(C)=O)C(OC(C)=O)C1OC(C)=O (centres undefined) | > 200 | > 200 µM | –
CN1Nc2ccccc2CC1=O | > 1550 | 55 µM | –
O=c1[nH]c(=O)n(COCCO)c2ccsc12 | > 200 | > 200 µM | –
Cc1ccc(NC(=O)c2cnccn2)c(=O)o1 | > 200 | > 200 µM | –
COc1ccc(C2=NN(C(=O)COc3ccc(Cl)cc3)C(O)(c3ccc(Cl)cc3)C2)cc1 (centres undefined) | > 11 | > 11 µM | –
CCOC(=O)NC1=NCC(C)S1 (centres undefined) | – | – | inactive
CC(=O)C1(C)CCC2C3C=C(C)C4=CC(=O)CCC4(C)C3CCC21C (centres undefined) | > 117 | 16.2 µM | –
O=C(Nc1ccc(F)cc1)C(=O)C(C(=O)c1ccccc1F)C1OC(=O)c2ccccc21 (centres undefined) | > 302 | 18.2 µM | –
CC(C)c1nsc(N)c1C(N)=O | > 200 | > 200 µM | –
Clc1ccc2nc(CCSCCc3nc4ccc(Cl)cc4[nH]3)[nH]c2c1 | – | – | inactive
CCC(=N\NC(N)=S)/C(C)=N/O | > 200 | > 200 µM | –
Cc1ccc(S(=O)(=O)Nn2c(-c3ccccc3)c(C#N)c(-c3ccc(N(C)C)cc3)c(C#N)c2=O)cc1 | > 100 | 35.5 µM | –
CCNc1ncc2nc(CC(=O)OC)c(=O)n(CC)c2n1 | > 200 | > 200 µM | –
CC(=O)NC1C(OCc2ccccc2)OC(CO)C(O)C1OC(C)C(=O)NC(C)C(=O)N[C@@H](CCC(=O)OCCCNC1c2ccccc2Nc2cccc([N+](=O)[O-])c21)C(N)=O (some centres undefined) | – | – | inactive
O=C(CCC(=O)Nc1ccc(Cl)cc1)CC(=O)c1ccc2ccccc2c1 | > 245 | > 245 µM | –
O=C(/C=C/c1ccc(O)cc1)c1ccc2c(c1)OCO2 | > 200 | 33.1 µM | –
Cc1[nH]c(N)c(C#N)c1Cc1ccccc1 | > 200 | > 200 µM | –
NCCN.O=C([O-])[O-].O=C([O-])[O-].[Co+3].[K+] | > 646 | 295 µM and 339 µM | –
COc1ccc(/C=C/c2ccnc3ccccc23)cc1 | 0.0631 | 14.1 µM | –
CC1(C)N([O-])[N+](=O)C1(C)C | > 200 | > 200 µM | –
CCN(CC)CC(C)C(O)(c1ccc(Cl)cc1)C1CCCCC1 (centres undefined) | > 200 | 13.2 µM | –
